According to patent publication US20170121315A1, “HETEROBICYCLICALLY SUBSTITUTED 4-OXOBUTANE ACID DERIVATIVES AND USE THEREOF” (priority 2014, published 2017):

Biological target: T1, human macrophage elastase (HME/hMMP-12) (Homo sapiens, UniProt P39900)
T1 construct: purchased R&D Systems 917-MP
Experiment: In vitro HME inhibition test (standard or high-sensitivity)
Assay type: biochemical
Settings: in some cases mean values, rounded to two significant figures
Procedure: The potency of the compounds according to the invention with respect to HME (MMP-12) is determined in an in vitro inhibition test. The HME-mediated amidolytic cleavage of a suitable peptide substrate leads to an increase in fluorescent light therein. The signal intensity of the fluorescent light is directly proportional to the enzyme activity. The active concentration of a test compound at which half the enzyme is inhibited (50% signal intensity of the fluorescent light) is reported as the IC50 value.
In a 384 hole microtiter plate, in a total test volume of 41 μl, the test buffer (0.1 M HEPES pH 7.4, 0.15 M NaCl, 0.03 M CaCl2, 0.004 mM ZnCl2, 0.02 M EDTA, 0.005% Brij®), the enzyme (0.5 nM HME; R&D Systems, 917-MP, autocatalytic activation according to the manufacturer's instructions) and the intramolecularly quenched substrate [5 μM Mca-Pro-Leu-Gly-Leu-Glu-Glu-Ala-Dap(Dnp)-NH2; Bachem, M-2670] are incubated in the absence and presence of the test substance (as a solution in DMSO) at 37° C. for two hours. The fluorescence intensity of the test mixtures is measured (excitation […], emission 393 nm). The IC50 values are ascertained by plotting the fluorescent light intensity against the active ingredient concentration.
In this case, an enzyme concentration ten times lower is used (final concentration, e.g. 0.05 nM) in order to achieve an increased test sensitivity. The incubation period chosen for the test is correspondingly longer (e.g. 16 hours).

T1 sequence (P39900 106-470): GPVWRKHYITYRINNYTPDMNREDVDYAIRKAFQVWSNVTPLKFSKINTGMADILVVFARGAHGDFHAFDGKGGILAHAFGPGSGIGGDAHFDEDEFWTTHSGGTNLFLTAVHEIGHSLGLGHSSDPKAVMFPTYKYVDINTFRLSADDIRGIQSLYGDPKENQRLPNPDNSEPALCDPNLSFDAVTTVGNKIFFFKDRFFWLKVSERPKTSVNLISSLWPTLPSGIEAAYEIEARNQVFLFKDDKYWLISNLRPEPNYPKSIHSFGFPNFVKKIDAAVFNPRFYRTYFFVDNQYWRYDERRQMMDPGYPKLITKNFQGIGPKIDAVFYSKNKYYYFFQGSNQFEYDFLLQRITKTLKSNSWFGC

Row | IC50 | Compound
1 | 4.1 nM | CC(C)CCCOc1ccc2cc(C(=O)CC(CCn3nnc4ccccc4c3=O)C(=O)O)oc2c1 (racemic) [Example 70, (+/−)-4-{6-[(4-Methylpentyl)oxy]-1-benzofur-2-yl}-4-oxo-2-[2-(4-oxo-1,2,3-benzotriazin-3(4H)-yl)ethyl]butanoic acid]
2 | 3.1 nM | CC(C)CCCCOc1ccc2cc(C(=O)CC(CCn3nnc4ccccc4c3=O)C(=O)O)oc2c1 (racemic) [Example 72, (+/−)-4-{6-[(5-Methylhexyl)oxy]-1-benzofur-2-yl}-4-oxo-2-[2-(4-oxo-1,2,3-benzotriazin-3(4H)-yl)ethyl]butanoic acid]
3 | 0.66 nM | O=C(CC(CCn1nnc2ccccc2c1=O)C(=O)O)c1coc2cc(OCCC3CCCCC3)ccc12 (racemic) [Example 76, (+/−)-4-[6-(2-Cyclohexylethoxy)-1-benzofur-3-yl]-4-oxo-2-[2-(4-oxo-1,2,3-benzotriazin-3(4H)-yl)ethyl]butanoic acid]
4 | 2.9 nM | O=C(CC(CCn1nnc2ccccc2c1=O)C(=O)O)c1coc2cc(OCc3cccc(Cl)c3)ccc12 (racemic) [Example 77, (+/−)-4-{6-[(3-Chlorobenzyl)oxy]-1-benzofur-3-yl}-4-oxo-2-[2-(4-oxo-1,2,3-benzotriazin-3(4H)-yl)ethyl]butanoic acid]
5 | 2 nM | O=C(CC(CCn1nnc2ccccc2c1=O)C(=O)O)c1coc2cc(OCC3CCCC3)ccc12 (racemic) [Example 78, (+/−)-4-[6-(Cyclopentylmethoxy)-1-benzofur-3-yl]-4-oxo-2-[2-(4-oxo-1,2,3-benzotriazin-3(4H)-yl)ethyl]butanoic acid]
6 | 4 nM | O=C(CC(CCn1nnc2ccccc2c1=O)C(=O)O)c1coc2cc(OCc3ccccc3)ccc12 (racemic) [Example 84, (+/−)-4-[6-(Benzyloxy)-1-benzofur-3-yl]-4-oxo-2-[2-(4-oxo-1,2,3-benzotriazin-3(4H)-yl)ethyl]butanoic acid]
7 | 1.4 nM | CCCOc1ccc2c(C(=O)CC(CCn3nnc4ccccc4c3=O)C(=O)O)coc2c1 (racemic) [Example 86, (+/−)-4-Oxo-2-[2-(4-oxo-1,2,3-benzotriazin-3(4H)-yl)ethyl]-4-(6-propoxy-1-benzofur-3-yl)butanoic acid]
8 | 1.3 nM | O=C(CC(CCn1nnc2ccccc2c1=O)C(=O)O)c1coc2cc(OCc3ccc(Cl)c(Cl)c3)ccc12 (racemic) [Example 92, (+/−)-4-{6-[(3,4-Dichlorobenzyl)oxy]-1-benzofur-3-yl}-4-oxo-2-[2-(4-oxo-1,2,3-benzotriazin-3(4H)-yl)ethyl]butanoic acid]
9 | 0.6 nM | O=C(CC(CCn1nnc2ccccc2c1=O)C(=O)O)c1coc2cc(OCC3CCOCC3)ccc12 (racemic) [Example 95, (+/−)-4-Oxo-2-[2-(4-oxo-1,2,3-benzotriazin-3(4H)-yl)ethyl]-4-[6-(tetrahydro-2H-pyran-4-ylmethoxy)-1-benzofur-3-yl]butanoic acid]
10 | 0.4 nM | CCCCCCOc1ccc2c(C(=O)CC(CCn3nnc4ccccc4c3=O)C(=O)O)coc2c1 (racemic) [Example 98, (+/−)-4-[6-(Hexyloxy)-1-benzofur-3-yl]-4-oxo-2-[2-(4-oxo-1,2,3-benzotriazin-3(4H)-yl)ethyl]butanoic acid]
11 | 0.54 nM | O=C(CC(CCn1nnc2ccccc2c1=O)C(=O)O)c1coc2cc(OCCc3ccccc3)ccc12 (racemic) [Example 110, (+/−)-4-Oxo-2-[2-(4-oxo-1,2,3-benzotriazin-3(4H)-yl)ethyl]-4-[6-(2-phenylethoxy)-1-benzofur-3-yl]butanoic acid]
12 | 3.1 nM | O=C(CC(CCn1nnc2ccccc2c1=O)C(=O)O)c1cc2ccc(OCC(=O)C3CC3)cc2s1 (racemic) [Example 115, (+/−)-4-[6-(2-Cyclopropyl-2-oxoethoxy)-1-benzothiophen-2-yl]-4-oxo-2-[2-(4-oxo-1,2,3-benzotriazin-3(4H)-yl)ethyl]butanoic acid]
13 | 4.2 nM | CCCOc1ccc2cc(C(=O)CC(CCn3nnc4ccccc4c3=O)C(=O)O)sc2c1 (racemic) [Example 116, (+/−)-4-Oxo-2-[2-(4-oxo-1,2,3-benzotriazin-3(4H)-yl)ethyl]-4-(6-propoxy-1-benzothiophen-2-yl)butanoic acid]
14 | 5.9 nM | O=C(CC(CCn1nnc2ccccc2c1=O)C(=O)O)c1cc2ccc(OCC3CCCO3)cc2s1 (racemic) [Example 117, (+/−)-4-Oxo-2-[2-(4-oxo-1,2,3-benzotriazin-3(4H)-yl)ethyl]-4-{6-[tetrahydrofuran-2-ylmethoxy]-1-benzothiophen-2-yl}butanoic acid]
15 | 3.7 nM | O=C(CC(CCn1nnc2ccccc2c1=O)C(=O)O)c1cc2ccc(OCC3CCO3)cc2s1 (racemic) [Example 119, (+/−)-4-{6-[Oxetan-2-ylmethoxy]-1-benzothiophen-2-yl}-4-oxo-2-[2-(4-oxo-1-benzotriazin-3(4H)-yl)ethyl]butanoic acid]
16 | 3.1 nM | O=C(CC(CCn1nnc2ccccc2c1=O)C(=O)O)c1cc2ccc(OCC3CCC3)cc2s1 (racemic) [Example 121, (+/−)-4-[6-(Cyclobutylmethoxy)-1-benzothiophen-2-yl]-4-oxo-2-[2-(4-oxo-1,2,3-benzotriazin-3(4H)-yl)ethyl]butanoic acid]
17 | 2.7 nM | O=C(CC(CCn1nnc2ccccc2c1=O)C(=O)O)c1cc2ccc(OCc3ccncc3)cc2s1 (racemic) [Example 123, (+/−)-4-Oxo-2-[2-(4-oxo-1,2,3-benzotriazin-3(4H)-yl)ethyl]-4-[6-(pyridin-4-ylmethoxy)-1-benzothiophen-2-yl]butanoic acid]
18 | 0.95 nM | COc1cccc(C(=O)COc2ccc3cc(C(=O)CC(CCn4nnc5ccccc5c4=O)C(=O)O)sc3c2)c1 (racemic) [Example 124, (+/−)-4-{6-[2-(3-Methoxyphenyl)-2-oxoethoxy]-1-benzothiophen-2-yl}-4-oxo-2-[2-(4-oxo-1,2,3-benzotriazin-3(4H)-yl)ethyl]butanoic acid]
19 | 4 nM | O=C(CC(CCn1nnc2ccccc2c1=O)C(=O)O)c1cc2ccc(OCc3ccc(F)cc3)cc2s1 (racemic) [Example 125, (+/−)-4-{6-[(4-Fluorobenzyl)oxy]-1-benzothiophen-2-yl}-4-oxo-2-[2-(4-oxo-1,2,3-benzotriazin-3(4H)-yl)ethyl]butanoic acid]
20 | 2.8 nM | CCOc1ccc2cc(C(=O)CC(CCn3nnc4ccccc4c3=O)C(=O)O)sc2c1 (racemic) [Example 127, (+/−)-4-(6-Ethoxy-1-benzothiophen-2-yl)-4-oxo-2-[2-(4-oxo-1,2,3-benzotriazin-3(4H)-yl)ethyl]butanoic acid]
21 | 1.1 nM | O=C(CC(CCn1nnc2ccc(C(F)(F)F)cc2c1=O)C(=O)O)c1cc2ccc(OCC3CC3)cc2s1 (racemic) [Example 128, (+/−)-4-[6-(Cyclopropylmethoxy)-1-benzothiophen-2-yl]-4-oxo-2-{2-[4-oxo-6-(trifluoromethyl)-1,2,3-benzotriazin-3(4H)-yl]ethyl}butanoic acid]
22 | 1.2 nM | COc1ccc2cc(C(=O)CC(CCn3nnc4ccc(C(F)(F)F)cc4c3=O)C(=O)O)sc2c1 (racemic) [Example 131, (+/−)-4-(6-Methoxy-1-benzothiophen-2-yl)-4-oxo-2-{2-[4-oxo-6-(trifluoromethyl)-1,2,3-benzotriazin-3(4H)-yl]ethyl}butanoic acid]
23 | 0.51 nM | CCCOc1ccc2cc(C(=O)CC(CCn3nnc4ccc(C(F)(F)F)cc4c3=O)C(=O)O)sc2c1 (racemic) [Example 132, (+/−)-4-Oxo-2-{2-[4-oxo-6-(trifluoromethyl)-1,2,3-benzotriazin-3(4H)-yl]ethyl}-4-(6-propoxy-1-benzothiophen-2-yl)butanoic acid]

Row | Compound | IC50
24 | CC(C)COc1ccc2c(C(=O)CC(CCn3nnc4ccccc4c3=O)C(=O)O)coc2c1 (racemic) [Example 104, (+/−)-4-(6-Isobutoxy-1-benzofur-3-yl)-4-oxo-2-[2-(4-oxo-1,2,3-benzotriazin-3(4H)-yl)ethyl]butanoic acid] | 1.1 nM
25 | CCCCOc1ccc2c(C(=O)CC(CCn3nnc4ccccc4c3=O)C(=O)O)coc2c1 (racemic) [Example 107, (+/−)-4-(6-Butoxy-1-benzofur-3-yl)-4-oxo-2-[2-(4-oxo-1,2,3-benzotriazin-3(4H)-yl)ethyl]butanoic acid] | 0.61 nM
26 | O=C(CC(CCn1nnc2ccccc2c1=O)C(=O)O)c1cc2ccc(OCCCC(F)(F)F)cc2s1 (racemic) [Example 120, (+/−)-4-Oxo-2-[2-(4-oxo-1,2,3-benzotriazin-3(4H)-yl)ethyl]-4-[6-(4,4,4-trifluorobutoxy)-1-benzothiophen-2-yl]butanoic acid] | 3.6 nM
27 | CC(C)CCOc1ccc2cc(C(=O)CC(CCn3nnc4ccccc4c3=O)C(=O)O)sc2c1 (racemic) [Example 122, (+/−)-4-[6-(3-Methylbutoxy)-1-benzothiophen-2-yl]-4-oxo-2-[2-(4-oxo-1,2,3-benzotriazin-3(4H)-yl)ethyl]butanoic acid] | 4.5 nM
28 | CCCCOc1ccc2cc(C(=O)CC(CCn3nnc4ccccc4c3=O)C(=O)O)sc2c1 (racemic) [Example 126, (+/−)-4-(6-Butoxy-1-benzothiophen-2-yl)-4-oxo-2-[2-(4-oxo-1,2,3-benzotriazin-3(4H)-yl)ethyl]butanoic acid] | 2.9 nM
